The results in this text go back to PubChem BioAssay (NCI).

Some test systems named below: DU-145 prostate; SK-OV-3 ovarian; SK-MEL-2 melanoma; KM12 colon; SN12C renal; MDA-MB-231 breast; IGROV1 ovarian; HS 578T breast; K-562 leukemia; NCI-H23 lung.
Common to all, as to assay: NCI anticancer screen, dose series, 48 h

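1) Cells in 96-well plates. 2) Compound, 48 h, 5 concentrations. 3) Linear interpolation between surrounding doses. 4) Unreached endpoint = highest concentration. The concentration for 50% growth inhibition is given as GI50. TGI: concentration producing complete growth inhibition.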

On to `CSc1ccc(C2=NN(C(C)=O)C(c3ccc(-c4ccc(Cl)cc4)o3)C2)cc1` (configuration not stated), for which the GI50 is 81 µM in the assay on DU-145 prostate; 28.9 µM in the assay with SK-OV-3 ovarian; 28.9 µM in the assay with SK-MEL-2 melanoma; 24 µM in the assay with KM12 colon; 21.7 µM in the assay with SN12C renal; 19.3 µM in the assay with MDA-MB-231 breast. Also, the GI50 in the assay with IGROV1 ovarian was 6.06 µM; in the assay on HS 578T breast it was 49.8 µM; in the assay with K-562 leukemia, 31.5 µM; in the assay with NCI-H23 lung it was 86.1 µM. Besides, the TGI is over 100 µM in the assay on DU-145 prostate; over 100 µM with SK-OV-3 ovarian; over 100 µM with SK-MEL-2 melanoma; over 100 µM in the assay on KM12 colon; 40.6 µM in the assay on SN12C renal; over 100 µM in the assay with MDA-MB-231 breast. The TGI in the assay on IGROV1 ovarian, in the assay on HS 578T breast, in the assay on K-562 leukemia and in the assay on NCI-H23 lung was over 100 µM each time.

With `COc1cc(/C=C/c2ccc3c(Br)cc(Br)c(O)c3n2)ccc1O`, the GI50 in the assay with DU-145 prostate is 2.41 µM; with SK-OV-3 ovarian it was 6.62 µM; in the assay with SK-MEL-2 melanoma, 6.11 µM; with KM12 colon, 1.41 µM; in the assay on SN12C renal it was 2 µM; with MDA-MB-231 breast, 7.39 µM. The GI50 is 1.54 µM with IGROV1 ovarian, 2.01 µM in the assay with HS 578T breast, 0.441 µM in the assay on K-562 leukemia and 1.99 µM with NCI-H23 lung. Besides, the TGI in the assay with DU-145 prostate was determined as 17.6 µM; in the assay on SK-OV-3 ovarian it was 31.8 µM; in the assay on SK-MEL-2 melanoma, 22.2 µM; with KM12 colon, 13.2 µM; with SN12C renal, 17.9 µM; in the assay on MDA-MB-231 breast, 22 µM. Also, the TGI in the assay with IGROV1 ovarian worked out at 13.6 µM; in the assay on HS 578T breast, 14.6 µM; in the assay with K-562 leukemia it was 10.5 µM; in the assay with NCI-H23 lung it was 16.4 µM.

Regarding `CCc1c(C)nc2sc3c(N)ncnc3c2c1C`, the GI50 with DU-145 prostate, with SK-OV-3 ovarian, in the assay with SK-MEL-2 melanoma, in the assay with KM12 colon, in the assay with SN12C renal and in the assay on MDA-MB-231 breast was over 25 µM throughout. The GI50 in the assay on IGROV1 ovarian, in the assay on HS 578T breast, with K-562 leukemia and in the assay with NCI-H23 lung was over 25 µM in each case. The TGI with DU-145 prostate, in the assay with SK-OV-3 ovarian, with SK-MEL-2 melanoma, in the assay with KM12 colon, in the assay with SN12C renal and with MDA-MB-231 breast was over 25 µM in each case. Moreover, the TGI with IGROV1 ovarian, in the assay with HS 578T breast, in the assay on K-562 leukemia and with NCI-H23 lung was over 25 µM each time.

Regarding `C[C@@H]1O[C@@H](O[C@@H]2[C@@H](O)[C@H](OCCc3ccc(O)c(O)c3)O[C@H](CO)[C@H]2OC(=O)/C=C/c2ccc(O)c(O)c2)[C@H](O)[C@H](OC2OC[C@](O)(CO)[C@H]2O)[C@H]1O` (some centres not stated), the GI50 with DU-145 prostate is 16.9 µM; with SK-OV-3 ovarian, over 100 µM; in the assay on SK-MEL-2 melanoma, 52.6 µM; in the assay on KM12 colon, over 100 µM; in the assay with SN12C renal, over 100 µM; with MDA-MB-231 breast, over 100 µM. In addition, the GI50 in the assay on IGROV1 ovarian is over 100 µM; in the assay with HS 578T breast, over 100 µM; with K-562 leukemia, 58.5 µM. Further, the TGI was 48 µM in the assay with DU-145 prostate; over 100 µM with SK-OV-3 ovarian; over 100 µM in the assay on SK-MEL-2 melanoma; over 100 µM in the assay on KM12 colon; over 100 µM in the assay with SN12C renal; over 100 µM in the assay with MDA-MB-231 breast. In addition, the TGI in the assay with IGROV1 ovarian, with HS 578T breast and in the assay on K-562 leukemia was over 100 µM in each case.

Regarding `COc1cc(C(=O)c2cc(C)c3[nH]c4ccc(O)cc4c3c2C)cc(OC)c1OC`, the GI50 is 0.0351 µM in the assay on DU-145 prostate; 0.267 µM in the assay on SK-OV-3 ovarian; 0.457 µM in the assay on SK-MEL-2 melanoma; under 0.0127 µM in the assay on KM12 colon; 0.0415 µM with SN12C renal; 0.0355 µM in the assay on MDA-MB-231 breast. Further, the GI50 with IGROV1 ovarian was 0.0169 µM; in the assay with HS 578T breast it was 0.0141 µM; with K-562 leukemia, under 0.01 µM; in the assay on NCI-H23 lung, 0.0335 µM. In addition, the TGI with DU-145 prostate was over 26.5 µM; in the assay on SK-OV-3 ovarian it was 98.6 µM; with SK-MEL-2 melanoma, over 100 µM; in the assay with KM12 colon, 23.8 µM; with SN12C renal it was over 100 µM; with IGROV1 ovarian, 20.5 µM. Also, the TGI with HS 578T breast was over 100 µM; with K-562 leukemia, over 100 µM; with NCI-H23 lung, over 40 µM.

With `c1cc(N2CCN(c3ccc(C4=NCCCN4)cc3)CC2)ccc1C1=NCCCN1`, the GI50 is over 66.6 µM in the assay with DU-145 prostate; over 100 µM in the assay on SK-OV-3 ovarian; over 100 µM in the assay on SK-MEL-2 melanoma; over 42.1 µM in the assay with KM12 colon; over 100 µM with SN12C renal; over 62.6 µM in the assay on MDA-MB-231 breast. Moreover, the GI50 in the assay on IGROV1 ovarian is over 100 µM; with HS 578T breast, over 58.7 µM; in the assay on K-562 leukemia, over 65.5 µM; with NCI-H23 lung, 30 µM. The TGI in the assay with DU-145 prostate, in the assay with SK-OV-3 ovarian, with SK-MEL-2 melanoma, in the assay with KM12 colon, with SN12C renal and in the assay with MDA-MB-231 breast was over 100 µM each time. In addition, the TGI with IGROV1 ovarian, with HS 578T breast, with K-562 leukemia and in the assay on NCI-H23 lung was over 100 µM each time.

`Oc1c(-c2cc(C(F)(F)F)[nH]n2)cc(Cl)c(OCc2ccc(Cl)cc2)c1-c1ccc(Cl)c(C(F)(F)F)c1`: the GI50 in the assay with DU-145 prostate was 1.15 µM; in the assay with SK-OV-3 ovarian, 1.54 µM; in the assay with SK-MEL-2 melanoma it was 0.36 µM; in the assay with KM12 colon, 0.862 µM; in the assay with SN12C renal, 0.153 µM; in the assay with MDA-MB-231 breast it was 0.46 µM. Further, the GI50 in the assay with IGROV1 ovarian was 0.965 µM; in the assay on HS 578T breast, 0.344 µM; in the assay on K-562 leukemia, 0.126 µM; in the assay on NCI-H23 lung it was 0.265 µM. The TGI was found to be 6.39 µM in the assay with DU-145 prostate; 4.66 µM in the assay with SK-OV-3 ovarian; 2.35 µM with SK-MEL-2 melanoma; 2.66 µM in the assay on KM12 colon; 3.31 µM with SN12C renal; 3.07 µM in the assay on MDA-MB-231 breast. In addition, the TGI in the assay on IGROV1 ovarian was determined as 5.93 µM; in the assay with HS 578T breast, 2.85 µM; in the assay on K-562 leukemia, 6.81 µM; with NCI-H23 lung, 4.06 µM.
